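Method: 48-hour compound exposure of cells in 96-well plates, five concentrations, linear interpolation of endpoints. Abbreviation: GI50, concentration required for 50% inhibition of growth. TGI: concentration producing complete growth inhibition.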
How the values were obtained:
Assay in all cases: growth of human tumour cells (NCI), 48 h
MDA-MB-231 breast = tested on: MDA-MB-231 breast
TK-10 renal = tested on: TK-10 renal
MALME-3M melanoma = tested on: MALME-3M melanoma
EKVX NSCLC = tested on: EKVX NSCLC
A498 renal = tested on: A498 renal
ACHN renal = tested on: ACHN renal
NCI-H226 lung = tested on: NCI-H226 lung
PC-3 prostate = tested on: PC-3 prostate
MOLT-4 leukemia = tested on: MOLT-4 leukemia
SF-539 CNS = tested on: SF-539 CNS

Row | SMILES | GI50 (MDA-MB-231 breast) | TGI (MDA-MB-231 breast) | GI50 (TK-10 renal) | TGI (TK-10 renal) | GI50 (MALME-3M melanoma) | TGI (MALME-3M melanoma) | GI50 (EKVX NSCLC) | TGI (EKVX NSCLC) | GI50 (A498 renal) | TGI (A498 renal) | GI50 (ACHN renal) | TGI (ACHN renal) | GI50 (NCI-H226 lung) | TGI (NCI-H226 lung) | GI50 (PC-3 prostate) | TGI (PC-3 prostate) | GI50 (MOLT-4 leukemia) | TGI (MOLT-4 leukemia) | GI50 (SF-539 CNS) | TGI (SF-539 CNS)
1 | CCn1c(-c2nonc2N)nc2c(C#CCN)ncc(OCCCN)c21 | > 25 µM | > 25 µM | > 25 µM | > 25 µM | > 25 µM | > 25 µM | > 25 µM | > 25 µM | > 18.6 µM | > 25 µM | > 25 µM | > 25 µM | > 25 µM | > 25 µM | > 25 µM | > 25 µM | > 25 µM | > 25 µM | > 25 µM | > 25 µM
2 | COc1cc(-n2cc(-c3ccc(Cl)c(Cl)c3)nc2SCc2ccccc2)cc(OC)c1OC | > 100 µM | > 100 µM | > 100 µM | > 100 µM | > 100 µM | > 100 µM | > 100 µM | > 100 µM | > 100 µM | > 100 µM | > 100 µM | > 100 µM | > 100 µM | > 100 µM | 38.9 µM | > 100 µM | 55.9 µM | > 100 µM | > 100 µM | > 100 µM

— PubChem BioAssay (NCI)
